Reference: PubChem BioAssay AID248 (DTP/NCI, 2004)
Several values for one entry are separate records, joined by “and”; a condition that tells them apart may be missing. Identical values can stand only once. Inconclusive results and toxic doses are left out. Cut-off read from the data, not from the text of the source: active = T/C of 150% or more; inactive = T/C below 125%.

Tested on: L1210 leukemia ip in BDF1 mice, survival T/C
Test: NCI In Vivo Anticancer Drug Screen. Data for tumor model L1210 Leukemia (intraperitoneal) in B6D2F1 (BDF1) mice
Details: endpoint: mean survival time, higher = longer survival
Method in brief: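 Tumor was transplanted into mice, which were then dosed with test compound or vehicle alone. Survival was recorded for each group, and the treated figure was expressed relative to the control figure.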

[1] = dose: 12.5 mg/kg/injection, schedule: Q04DX003 (ip), vehicle: Klucel (hydroxypropylcellulose) (HPC)
[2] = dose: 25.0 mg/kg/injection, schedule: Q04DX003 (ip), vehicle: Klucel (hydroxypropylcellulose) (HPC)
[3] = dose: 100.0 mg/kg/injection, schedule: Q01DX001 (ip), vehicle: Klucel (hydroxypropylcellulose) (HPC)
[4] = dose: 100.0 mg/kg/injection, schedule: Q04DX003 (ip), vehicle: saline with Tween-80
[5] = dose: 200.0 mg/kg/injection, schedule: Q04DX003 (ip), vehicle: saline with Tween-80
[6] = dose: 400.0 mg/kg/injection, schedule: Q04DX003 (ip), vehicle: saline with Tween-80
[7] = dose: 100.0 mg/kg/injection, schedule: Q04DX003 (ip), vehicle: Klucel (hydroxypropylcellulose) (HPC)
[8] = dose: 200.0 mg/kg/injection, schedule: Q04DX003 (ip), vehicle: Klucel (hydroxypropylcellulose) (HPC)
[9] = dose: 400.0 mg/kg/injection, schedule: Q04DX003 (ip), vehicle: Klucel (hydroxypropylcellulose) (HPC)
[10] = dose: 100.0 mg/kg/injection, schedule: Q01DX001 (ip), vehicle: saline
[11] = dose: 200.0 mg/kg/injection, schedule: Q01DX001 (ip), vehicle: saline
[12] = dose: 400.0 mg/kg/injection, schedule: Q01DX001 (ip), vehicle: saline
[13] = dose: 100.0 mg/kg/injection, schedule: Q01DX001 (ip), vehicle: saline with Tween-80
[14] = dose: 200.0 mg/kg/injection, schedule: Q01DX001 (ip), vehicle: saline with Tween-80
[15] = dose: 400.0 mg/kg/injection, schedule: Q01DX001 (ip), vehicle: saline with Tween-80

Measured: T/C

CN=C1C=C(NC)C(F)(F)C1(F)F
inactive: dose: 6.25 mg/kg/injection, schedule: Q01DX009 (ip), vehicle: saline sonified 96 % of control | dose: 12.5 mg/kg/injection, schedule: Q01DX009 (ip), vehicle: saline sonified 100 % of control | [1] 98 % of control | dose: 25.0 mg/kg/injection, schedule: Q01DX009 (ip), vehicle: saline sonified 91 % of control | [2] 98 % of control | dose: 50.0 mg/kg/injection, schedule: Q04DX003 (ip), vehicle: Klucel (hydroxypropylcellulose) (HPC) 97 % of control

CN1CCC2(CC1)C(=O)N(CC1COc3ccccc3O1)C(=O)C2c1ccccc1 (stereo not given)
inactive: [3] 99 % of control

CCOC(=O)c1c(N)sc2c1CCCC2
inactive: dose: 100.0 mg/kg/injection, schedule: Q01DX009 (ip), vehicle: saline sonified 102 % of control | [4] 95 % of control | dose: 200.0 mg/kg/injection, schedule: Q01DX009 (ip), vehicle: saline sonified 89 % of control | [5] 103 % of control | dose: 400.0 mg/kg/injection, schedule: Q01DX009 (ip), vehicle: saline sonified 105 % of control | [6] 97 % of control

O=S(=O)(Cc1ccc(Cl)cc1Cl)Cc1ccc(Cl)cc1Cl
inactive: [7] 89 % of control | [8] 87 % of control | [9] 87 % of control

CN(C)CCCN1CCC2(CC1)C(C#N)C(=O)NC(=O)C2C#N (stereo not given)
inactive: dose: 100.0 mg/kg/injection, schedule: Q04DX002 (ip), vehicle: saline 92 % of control | dose: 200.0 mg/kg/injection, schedule: Q04DX002 (ip), vehicle: saline 100 % of control | dose: 400.0 mg/kg/injection, schedule: Q04DX002 (ip), vehicle: saline 111 % of control

COC(=O)CC[C@@H](C)[C@H]1CC[C@H]2[C@@H]3CC[C@@H]4C[C@H](O)CC[C@]4(C)[C@H]3CC[C@]12C
inactive: dose: 100.0 mg/kg/injection, schedule: Q01DX009 (sc), vehicle: olive oil, sesame oil, peanut oil 107 % of control | dose: 200.0 mg/kg/injection, schedule: Q01DX009 (sc), vehicle: olive oil, sesame oil, peanut oil 102 % of control | dose: 400.0 mg/kg/injection, schedule: Q01DX009 (sc), vehicle: olive oil, sesame oil, peanut oil 95 % of control

C(=C/c1ccccc1)/C=N/Nc1ccccc1
inactive: [7] 98 % of control | [8] 95 % of control | [9] 92 % of control

Cc1ncc(C(=O)O)s1
inactive: [7] 90 % of control | [8] 95 % of control | [9] 98 % of control

COC(=O)Cc1cc(C)n(C)c(=O)c1CN1C(=O)c2ccccc2C1=O
inactive: dose: 100.0 mg/kg/injection, schedule: Q04DX003 (ip), vehicle: other 102 % of control | dose: 200.0 mg/kg/injection, schedule: Q04DX003 (ip), vehicle: other 107 % of control | dose: 400.0 mg/kg/injection, schedule: Q04DX003 (ip), vehicle: other 98 % of control

O=C(Nc1ccc(Cl)c(Cl)c1)Nc1ccc(Cl)c(Cl)c1
inactive: dose: 100.0 mg/kg/injection, schedule: Q04DX002 (ip), vehicle: Klucel (hydroxypropylcellulose) (HPC) 100 % of control | dose: 200.0 mg/kg/injection, schedule: Q04DX002 (ip), vehicle: Klucel (hydroxypropylcellulose) (HPC) 90 % of control | dose: 400.0 mg/kg/injection, schedule: Q04DX002 (ip), vehicle: Klucel (hydroxypropylcellulose) (HPC) 86 % of control

O=C(OCc1cnccn1)c1cnccn1
inactive: [10] 107 % of control | [11] 94 % of control | [12] 100 % of control

Nc1cc(Sc2ccc(Cl)cc2)nc(N)n1
inactive: [13] 100 % of control | [14] 100 % of control | [15] 100 % of control

CC(=O)Nc1ccc(C(C)(C)c2ccc([N+](=O)[O-])cc2)cc1[N+](=O)[O-]
inactive: dose: 50.0 mg/kg/injection, schedule: Q01DX001 (ip), vehicle: other 98 % of control | dose: 100.0 mg/kg/injection, schedule: Q01DX001 (ip), vehicle: other 104 % of control | dose: 400.0 mg/kg/injection, schedule: Q01DX001 (ip), vehicle: other 93 % of control

ClCC[N-]CC[N-]CCCl.[Cl][Pt+2][Cl]
inactive: [3] 113 % of control | dose: 200.0 mg/kg/injection, schedule: Q01DX001 (ip), vehicle: Klucel (hydroxypropylcellulose) (HPC) 107 % of control | [8] 104 % of control | [9] 88 % of control

c1ccc(C[P+](c2ccccc2)(c2ccccc2)c2ccccc2)cc1
inactive: dose: 3.13 mg/kg/injection, schedule: Q01DX009 (ip), vehicle: Klucel (hydroxypropylcellulose) (HPC) 106 % of control | dose: 5.0 mg/kg/injection, schedule: Q01DX001 (ip), vehicle: saline with Tween-80 98 % of control | dose: 5.0 mg/kg/injection, schedule: Q01DX001 (ip), vehicle: saline 105 % of control | dose: 5.0 mg/kg/injection, schedule: Q01DX009 (ip), vehicle: saline with Tween-80 95 % of control | dose: 6.25 mg/kg/injection, schedule: Q01DX009 (ip), vehicle: Klucel (hydroxypropylcellulose) (HPC) 102 % of control and 95 % of control | dose: 10.0 mg/kg/injection, schedule: Q01DX001 (ip), vehicle: saline with Tween-80 92 % of control | dose: 10.0 mg/kg/injection, schedule: Q01DX001 (ip), vehicle: saline 100 % of control | dose: 10.0 mg/kg/injection, schedule: Q01DX009 (ip), vehicle: saline with Tween-80 87 % of control | dose: 12.5 mg/kg/injection, schedule: Q01DX009 (ip), vehicle: Klucel (hydroxypropylcellulose) (HPC) 107 % of control and 96 % of control and 110 % of control | [1] 102 % of control | dose: 20.0 mg/kg/injection, schedule: Q01DX001 (ip), vehicle: saline with Tween-80 90 % of control | dose: 20.0 mg/kg/injection, schedule: Q01DX001 (ip), vehicle: saline 96 % of control | dose: 25.0 mg/kg/injection, schedule: Q01DX009 (ip), vehicle: Klucel (hydroxypropylcellulose) (HPC) 89 % of control | [2] 102 % of control | dose: 40.0 mg/kg/injection, schedule: Q01DX001 (ip), vehicle: saline 105 % of control

C/C=C(/C(=O)O)c1ccccc1
inactive: [7] 109 % of control | [8] 88 % of control | [9] 94 % of control

Cc1ccc(NC(=O)Oc2ccc(Cl)cc2C)c([N+](=O)[O-])c1
inactive: [7] 102 % of control | [8] 101 % of control | [9] 91 % of control

CCOC(=O)CC1C(=O)CCCC1=O
inactive: [13] 98 % of control | [14] 104 % of control | [15] 95 % of control

N#CC(C#N)=Cc1c(Cl)cccc1Cl
inactive: dose: 6.25 mg/kg/injection, schedule: Q01DX001 (ip), vehicle: Klucel (hydroxypropylcellulose) (HPC) 96 % of control | dose: 6.25 mg/kg/injection, schedule: Q04DX003 (ip), vehicle: Klucel (hydroxypropylcellulose) (HPC) 94 % of control | dose: 12.5 mg/kg/injection, schedule: Q01DX001 (ip), vehicle: Klucel (hydroxypropylcellulose) (HPC) 103 % of control | [1] 114 % of control | dose: 25.0 mg/kg/injection, schedule: Q01DX001 (ip), vehicle: Klucel (hydroxypropylcellulose) (HPC) 96 % of control and 109 % of control | [2] 97 % of control | [3] 105 % of control

CCOC(=O)c1sc2ccc([N+](=O)[O-])cc2c1C
inactive: [10] 93 % of control | [11] 95 % of control | [12] 104 % of control

COC(=O)[C@]1(C)CCC[C@]2(C)c3ccc(C(C)C)cc3CC[C@@H]12
inactive: dose: 0.5 mg/kg/injection, schedule: Q01DX009 (ip), vehicle: Klucel (hydroxypropylcellulose) (HPC) 100 % of control | dose: 0.5 mg/kg/injection, schedule: Q04DX003 (ip), vehicle: Klucel (hydroxypropylcellulose) (HPC) 107 % of control | dose: 1.0 mg/kg/injection, schedule: Q01DX009 (ip), vehicle: Klucel (hydroxypropylcellulose) (HPC) 111 % of control | dose: 1.0 mg/kg/injection, schedule: Q04DX003 (ip), vehicle: Klucel (hydroxypropylcellulose) (HPC) 93 % of control | dose: 2.0 mg/kg/injection, schedule: Q01DX009 (ip), vehicle: Klucel (hydroxypropylcellulose) (HPC) 98 % of control | dose: 2.0 mg/kg/injection, schedule: Q04DX003 (ip), vehicle: Klucel (hydroxypropylcellulose) (HPC) 98 % of control | [4] 96 % of control | [5] 107 % of control | [6] 102 % of control
